Experimental data as given in patent publication US20250049776A1, “AUTOPHAGY INDUCING COMPOUNDS AND USES THEREOF, IN PARTICULAR FOR A SYSTEMIC TREATMENT OF DISEASES AND CONDITIONS” (Samsara Therapeutics Inc., priority 2021, published 2025).

Key:
[1] = tested on: U2OS cell line stabling expressing RFP-eGFP-hLC3b; assay: Tandem reporter assay (autophagic flux, RFP-only puncta); format: cell-based; settings: Homo sapiens, RFP-only puncta as percentage of DMSO-treated control, 24 hours; for activity at 1 µM: read-out: Autolysosome % DMSO activity (compound concentration of 1 μM); for activity at 10 µM: read-out: Autolysosome % DMSO activity (compound concentration of 10 μM)
Protocol: Selected compounds of this invention were also assessed for their ability to stimulate autophagy using a U20S cell line stabling expressing RFP-eGFP-hLC3b (a tandem reporter cell line). During the process of autophagy, the cargo to be degraded is first enveloped by organelles called autophagosomes. These autophagosomes then fuse with lysosomes, causing them to become acidified and their digestive enzymes to become activated. The term “autophagic flux” is used to represent the dynamic process of autophagy: autophagic flux refers to the whole process of autophagy, including autophagosome formation, maturation, fusion with lysosomes, subsequent breakdown and the release of macromolecules back into the cytosol (Zhang X J, Chen S, Huang K X, Le W D. Why should autophagic flux be assessed? Acta Pharmacol Sin. 2013 May; 34(5): 595-9. doi: 10.1038/aps.2012.184. Epub 2013 Mar. 11). Compounds that stimulate autophagic flux stimulate the dynamic process of autophagy (the whole process of autophagy).
LC3b is a protein found in the membrane of autophagosomes which has been used to generate genetic reporters of autophagy in cells. In these systems a tandem fusion of LC3b is engineered with two fluorescent proteins of different wavelengths: one which is acid sensitive (for example eGFP, which fluoresces green) and the other which is acid insensitive (for example RFP, which fluoresces red). Cells expressing RFP-eGFP-hLC3b can be examined using fluorescent microscopy: the autophagosomes present will fluoresce in both channels (either yellow in an overlay of both channels or puncta that are present in both the individual red and green channels) but the autolysosomes present will fluoresce in the RFP (red) channel only. Using a fluorescent microscope, the number of autophagosomes and autolysosomes can be counted, allowing for the monitoring of both the induction of autophagy (total puncta count) and the rate of autophagic flux (ratio of red-only to red-and-green puncta). The influence of small molecules on autophagy induction and flux can be assessed using this system by comparison to a non-treated control.
Representative Procedure: Human osteosarcoma U2OS cells stably expressing RFP-eGFP-hLC3b were seeded (10,000 cells/well) into a 96-well glass-bottom plate (Cell Carrier Ultra, Perkin Elmer) in DMEM Glutamax media (Gibco) supplemented with 10% Fetal Bovine Serum (FBS) and antibiotics (100 u/ml penicillin, 100 μg/ml streptomycin, Invitrogen), then incubated overnight in a humified atmosphere at 37° C. and 5% CO2. The cells were then treated with the compounds of interest, dissolved in DMSO, in a duplicated 5- or 10-point dose-response. 8 wells were treated with an equivalent volume of DMSO, 4 with 0.3 μM torin-1 as a positive control (MCE) and 4 wells with 0.4 μM torin-1 plus 0.2 μM bafilomycin (MCE) as a control for flux inhibition. The cells were returned to the incubator and the treatment continued for 24 hours. After treatment, the media was aspirated off and the cells fixed with a solution of 4% formaldehyde+1% glutaraldehyde (Sigma) in dPBS (plus magnesium and calcium, Gibco).
Fixation was allowed to proceed for 15 minutes at room temperature then the fixative solution discarded and replaced with PBS (Gibco) plus Hoescht 33342 ([…], Sigma). After 30 minutes the plates were imaged on an Opera Phenix confocal microscope (Perkin-Elmer) using a 40× water objective, collecting using DAPI, mCherry and GFP channels. Cells were detected based upon the staining of their nuclei with DAPI using the Harmony image analysis software (Perkin-Elmer) and the number of autophagosomes (GFP and RFP puncta) and autolysosomes (RFP only puncta) per cell were counted using the spot picking function within the software.

[2] = tested on: Human osteosarcoma U20S cells; assay: Assay to measure lysosome and autolysosome formation (acidic vesicle formation, LysoView/LysoTracker staining); format: cell-based; settings: Homo sapiens; U2OS cells, concentration of 0.8 μM; read-out: Activity (percentage increase in acidic vesicle formation over the DMSO-treated control), Table 2
Method in brief: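 U2OS cells treated with compounds in DMSO for 24 h, then stained 45 min at 37 °C with 1× LysoView 633 or 50 nM LysoTracker Deep Red, with Hoechst nuclear counterstain. Live-cell fluorescence imaging at 37 °C; acidic vesicle formation judged against DMSO-treated control.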

SMILES | activity at 1 µM [1] [%] | activity at 10 µM [1] [%] | activation at 0.8 µM [2] [%]
O=C(c1csc(-c2cnn(-c3ccccc3OC(F)(F)F)c2)n1)N1C[C@H]2C[C@@H]1CN2 [Compound 376, (1R,4R)-2-(2-{1-[2-(trifluoromethoxy)phenyl]-1H-pyrazol-4-yl}-1,3-thiazole-4-carbonyl)-2,5-diazabicyclo[2.2.1]heptane] | 176 | 260 | –
CC(C)N(C(=O)c1coc(-c2cnn(-c3ccccc3)c2)n1)[C@H]1CCNC1 [Compound 381, 2-(1-phenyl-1H-pyrazol-4-yl)-N-(propan-2-yl)-N-[(3S)-pyrrolidin-3-yl]-1,3-oxazole-4-carboxamide] | 118 | 179 | –
O=C(c1coc(-c2cnn(-c3ccccc3OC(F)(F)F)c2)n1)N1C[C@H]2C[C@@H]1CN2 [Compound 378, (1R,4R)-2-(2-{1-[2-(trifluoromethoxy)phenyl]-1H-pyrazol-4-yl}-1,3-oxazole-4-carbonyl)-2,5-diazabicyclo[2.2.1]heptane] | 122 | 199 | –
CC(C)N(C(=O)c1csc(-c2cnn(C(C)(C)C)c2)n1)[C@H]1CCNC1 [Compound 391, 2-(1-tert-butyl-1H-pyrazol-4-yl)-N-(propan-2-yl)-N-[(3S)-pyrrolidin-3-yl]-1,3-thiazole-4-carboxamide] | 109 | 161 | –
CC(C)N(C(=O)c1csc(-c2cnn(C(C)C)c2)n1)[C@H]1CCNC1 [Compound 390, N-(propan-2-yl)-2-[1-(propan-2-yl)-1H-pyrazol-4-yl]-N-[(3S)-pyrrolidin-3-yl]-1,3-thiazole-4-carboxamide] | 106 | 116 | –
CN(C(=O)c1nc(-c2cnn(-c3ccccc3)c2)c[nH]1)[C@H]1CCNC1 [Compound 359, N-methyl-5-(1-phenyl-1H-pyrazol-4-yl)-N-[(3S)-pyrrolidin-3-yl]-1H-imidazole-2-carboxamide] | 113 | 144 | –
CC(C)N(C(=O)c1csc(-c2cnn(-c3ccccc3)c2)n1)C1CCNCC1(F)F (stereo not shown) [Compound 382, N-(3,3-difluoropiperidin-4-yl)-2-(1-phenyl-1H-pyrazol-4-yl)-N-(propan-2-yl)-1,3-thiazole-4-carboxamide] | 96 | 108 | –
CN(C(=O)c1csc(-c2cnn(-c3ccccc3)n2)n1)[C@@H]1CCNC1 [Compound 363, N-methyl-2-(2-phenyl-2H-1,2,3-triazol-4-yl)-N-[(3R)-pyrrolidin-3-yl]-1,3-thiazole-4-carboxamide] | 171 | – | –
COc1ccccc1-n1cc(-c2nc(C(=O)N(C(C)C)[C@H]3CCNC3)cs2)cn1 [Compound 398, 2-[1-(2-methoxyphenyl)-1H-pyrazol-4-yl]-N-(propan-2-yl)-N-[(3S)-pyrrolidin-3-yl]-1,3-thiazole-4-carboxamide] | 116 | 190 | –
Cc1ccccc1-n1cc(-c2nc(C(=O)N(C(C)C)[C@H]3CCNC3)cs2)cn1 [Compound 397, 2-[1-(2-methylphenyl)-1H-pyrazol-4-yl]-N-(propan-2-yl)-N-[(3S)-pyrrolidin-3-yl]-1,3-thiazole-4-carboxamide] | 115 | 191 | –
CC(C)N(C(=O)c1csc(-c2cnn(C)c2)n1)[C@H]1CCNC1 [Compound 389, 2-(1-methyl-1H-pyrazol-4-yl)-N-(propan-2-yl)-N-[(3S)-pyrrolidin-3-yl]-1,3-thiazole-4-carboxamide] | 101 | 108 | –
CC(C)N(C(=O)c1csc(-c2cnn(-c3ccccc3Cl)c2)n1)[C@H]1CCNC1 [Compound 395, 2-[1-(2-chlorophenyl)-1H-pyrazol-4-yl]-N-(propan-2-yl)-N-[(3S)-pyrrolidin-3-yl]-1,3-thiazole-4-carboxamide] | 137 | 191 | –
CCN(C(=O)c1csc(-c2cnn(-c3ccccc3)n2)n1)[C@@H]1CCNC1 [Compound 365, N-ethyl-2-(2-phenyl-2H-1,2,3-triazol-4-yl)-N-[(3R)-pyrrolidin-3-yl]-1,3-thiazole-4-carboxamide] | 183 | – | –
CC(C)N(C(=O)c1csc(-c2cnn(C(C)C)c2)n1)C1CCNCC1 [Compound 393, N-(piperidin-4-yl)-N-(propan-2-yl)-2-[1-(propan-2-yl)-1H-pyrazol-4-yl]-1,3-thiazole-4-carboxamide] | 106 | 110 | –
CN(C(=O)c1cnc(-c2cnn(-c3ccccc3)c2)[nH]1)[C@H]1CCNC1 [Compound 358, N-methyl-2-(1-phenyl-1H-pyrazol-4-yl)-N-[(3S)-pyrrolidin-3-yl]-1H-imidazole-4-carboxamide] | 102 | 103 | –
CC(C)N(C(=O)c1csc(-c2cnn(C(C)(C)C)c2)n1)C1CCNCC1 [Compound 394, 2-(1-tert-butyl-1H-pyrazol-4-yl)-N-(piperidin-4-yl)-N-(propan-2-yl)-1,3-thiazole-4-carboxamide] | 114 | 176 | –
CC(C)N(C(=O)c1nc(-c2cnn(-c3ccccc3)c2)c[nH]1)[C@@H]1CCNC1 [Compound 345, 5-(1-phenyl-1H-pyrazol-4-yl)-N-(propan-2-yl)-N-[(3R)-pyrrolidin-3-yl]-1H-imidazole-2-carboxamide] | 116 | 72 | –
CCN(C(=O)c1csc(-c2cnn(-c3ccccn3)c2)n1)[C@H]1CCNC1 [Compound 367, N-ethyl-2-[1-(pyridin-2-yl)-1H-pyrazol-4-yl]-N-[(3S)-pyrrolidin-3-yl]-1,3-thiazole-4-carboxamide] | 114 | 215 | –
Cc1ccc(-n2cc(-c3nc(C(=O)N(C(C)C)C4CCNCC4)cs3)cn2)cc1 [Compound 57, 2-[1-(4-methylphenyl)-1H-pyrazol-4-yl]-N-(piperidin-4-yl)-N-(propan-2-yl)-1,3-thiazole-4-carboxamide] | – | – | 30 to 50
CCCN(C(=O)c1csc(-c2cnn(-c3ccc(F)cc3)c2)n1)[C@H]1CCNC1 [Compound 58, 2-[1-(4-fluorophenyl)-1H-pyrazol-4-yl]-N-propyl-N-[(3S)-pyrrolidin-3-yl]-1,3-thiazole-4-carboxamide] | – | – | 10 to 30
CCCN(C(=O)c1csc(-c2cnn(-c3ccccc3C(F)(F)F)c2)n1)[C@@H]1CCNC1 [Compound 83, N-propyl-N-[(3R)-pyrrolidin-3-yl]-2-{1-[2-(trifluoromethyl)phenyl]-1H-pyrazol-4-yl}-1,3-thiazole-4-carboxamide] | – | – | 30 to 50
CCCN(C(=O)c1csc(-c2cnn(-c3ccccn3)c2)n1)[C@@H]1CCNC1 [Compound 44, N-propyl-2-[1-(pyridin-2-yl)-1H-pyrazol-4-yl]-N-[(3R)-pyrrolidin-3-yl]-1,3-thiazole-4-carboxamide] | – | – | 10 to 30
NCCCNC(=O)c1csc(-c2cnn(-c3ccccc3)c2)n1 [Compound 159, N-(3-aminopropyl)-2-(1-phenyl-1H-pyrazol-4-yl)-1,3-thiazole-4-carboxamide] | – | – | 30 to 50
CCCN(C(=O)c1csc(-c2ccc(-c3ccccc3)s2)n1)[C@H]1CCNC1 [Compound 69, 2-(5-phenylthiophen-2-yl)-N-propyl-N-[(3S)-pyrrolidin-3-yl]-1,3-thiazole-4-carboxamide] | – | – | 30 to 50
